Experimental data from ChEMBL document CHEMBL5154848, “Synthesis of heterocyclic ring-fused analogs of HMG499 as novel degraders of HMG-CoA reductase that lower cholesterol” (Eur J Med Chem, 2022).

Columns and labels:
Assay type in all cases: cell-based
[1] = molecular target: T1, 3-hydroxy-3-methylglutaryl-coenzyme A reductase (Cricetulus griseus, UniProt P00347); assay: Induction of degradation of hamster HMGCR (TM1-8)-GFP (1 to 346 residues) transfected in CHO-7 cells incubated for 16 hrs in sterol-depleted medium by fluorescence based microplate reader assay
T1 sequence (P00347 whole entry): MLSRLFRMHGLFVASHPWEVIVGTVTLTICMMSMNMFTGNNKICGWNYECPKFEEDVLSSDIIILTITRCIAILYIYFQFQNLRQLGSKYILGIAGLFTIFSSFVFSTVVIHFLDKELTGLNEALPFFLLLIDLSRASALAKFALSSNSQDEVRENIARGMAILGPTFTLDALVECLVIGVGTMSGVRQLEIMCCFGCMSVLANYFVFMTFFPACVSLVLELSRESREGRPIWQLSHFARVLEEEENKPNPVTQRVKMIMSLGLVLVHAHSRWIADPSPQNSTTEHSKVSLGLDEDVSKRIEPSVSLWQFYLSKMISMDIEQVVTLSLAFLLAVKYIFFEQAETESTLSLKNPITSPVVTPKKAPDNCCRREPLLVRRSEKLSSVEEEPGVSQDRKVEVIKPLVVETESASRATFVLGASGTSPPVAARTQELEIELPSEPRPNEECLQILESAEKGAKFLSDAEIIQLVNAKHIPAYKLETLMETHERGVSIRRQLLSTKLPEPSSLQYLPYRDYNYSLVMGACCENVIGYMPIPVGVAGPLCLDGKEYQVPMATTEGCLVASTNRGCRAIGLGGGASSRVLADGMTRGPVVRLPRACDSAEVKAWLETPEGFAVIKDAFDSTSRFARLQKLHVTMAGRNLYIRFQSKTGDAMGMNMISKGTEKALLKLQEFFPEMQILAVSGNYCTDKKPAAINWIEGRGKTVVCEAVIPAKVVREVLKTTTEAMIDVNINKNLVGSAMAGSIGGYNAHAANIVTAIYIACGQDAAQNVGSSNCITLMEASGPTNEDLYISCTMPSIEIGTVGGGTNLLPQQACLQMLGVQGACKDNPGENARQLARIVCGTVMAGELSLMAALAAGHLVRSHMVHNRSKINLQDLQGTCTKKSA

[2] = Toxicity in human SV589 cells assessed as cholesterol accumulation in lysosome at 10 uM incubated for 16 hrs by immunofluorescence based confocal microscopy; conditions: sv-589, 16 h
[3] = Toxicity in human SV589 cells assessed as cholesterol accumulation in lysosome at 2.5 uM incubated for 16 hrs by immunofluorescence based confocal microscopy; conditions: sv-589, 16 h

EC50 [1] [µM] | SMILES | Activity [2] | Activity [3]
1.26 | CC(=O)n1ncc2c1C(C)(C)C1=CC[C@H]3[C@@H]4CC[C@H]([C@H](C)CCC(=O)N5CCCCC5)[C@@]4(C)CC[C@@H]3[C@@]1(C)C2 |  | 
4.94 | C[C@H](CCC(=O)O)[C@H]1CC[C@H]2[C@@H]3CC=C4C(C)(C)c5sc(N)nc5C[C@]4(C)[C@H]3CC[C@]12C | Non-Toxic | 
3.37 | Cc1nc2c(s1)C(C)(C)C1=CC[C@H]3[C@@H]4CC[C@H]([C@H](C)CCC(=O)O)[C@@]4(C)CC[C@@H]3[C@@]1(C)C2 | Non-Toxic | 
0.28 | CC(=O)n1cnc2c1C(C)(C)C1=CC[C@H]3[C@@H]4CC[C@H]([C@H](C)CC(=O)N5CCOCC5)[C@@]4(C)CC[C@@H]3[C@@]1(C)C2 |  | 
5.02 | C[C@H](CCC(=O)O)[C@H]1CC[C@H]2[C@@H]3CC=C4C(C)(C)c5nccnc5C[C@]4(C)[C@H]3CC[C@]12C | Non-Toxic | 
5.81 | C[C@H](CCC(=O)O)[C@H]1CC[C@H]2[C@@H]3CC=C4C(C)(C)c5nonc5C[C@]4(C)[C@H]3CC[C@]12C | Non-Toxic | 
1.63 | CCNC(=O)CC[C@@H](C)[C@H]1CC[C@H]2[C@@H]3CC=C4C(C)(C)c5c(cnn5C(C)=O)C[C@]4(C)[C@H]3CC[C@]12C |  | 
28.1 | Cc1nc2c(o1)C(C)(C)C1=CC[C@H]3[C@@H]4CC[C@H]([C@H](C)CCC(=O)N5CCOCC5)[C@@]4(C)CC[C@@H]3[C@@]1(C)C2 |  | 
2.66 | CC(=O)n1ncc2c1C(C)(C)C1=CC[C@H]3[C@@H]4CC[C@H]([C@H](C)CCC(=O)O)[C@@]4(C)CC[C@@H]3[C@@]1(C)C2 | Non-Toxic | 
0.73 | CC(C)C(=O)n1cnc2c1C(C)(C)C1=C[C@H](O)[C@H]3[C@@H]4CC[C@H]([C@H](C)CCC(=O)N5CCOCC5)[C@@]4(C)CC[C@@H]3[C@@]1(C)C2 | Toxic | 
0.43 | CC(C)C(=O)n1cnc2c1C(C)(C)C1=CC[C@H]3[C@@H]4CC[C@H]([C@H](C)CCC(=O)N5CCOCC5)[C@@]4(C)CC[C@@H]3[C@@]1(C)C2 | Non-Toxic | 
0.76 | C=C(C)C(=O)n1cnc2c1C(C)(C)C1=CC[C@H]3[C@@H]4CC[C@H]([C@H](C)CCC(=O)N5CCOCC5)[C@@]4(C)CC[C@@H]3[C@@]1(C)C2 | Non-Toxic | 
2.03 | CCCNC(=O)CC[C@@H](C)[C@H]1CC[C@H]2[C@@H]3CC=C4C(C)(C)c5c(cnn5C(C)=O)C[C@]4(C)[C@H]3CC[C@]12C |  | 
8.8 | C[C@H](CCC(=O)O)[C@H]1CC[C@H]2[C@@H]3CC=C4C(C)(C)c5c(cnn5-c5ccccc5)C[C@]4(C)[C@H]3CC[C@]12C | Non-Toxic | 
0.52 | CCCC(=O)n1cnc2c1C(C)(C)C1=CC[C@H]3[C@@H]4CC[C@H]([C@H](C)CCC(=O)N5CCOCC5)[C@@]4(C)CC[C@@H]3[C@@]1(C)C2 | Non-Toxic | 
4.47 | CC(=O)n1ncc2c1C(C)(C)C1=CC[C@H]3[C@@H]4CC[C@H]([C@H](C)CCC(=O)Nc5ccccc5C)[C@@]4(C)CC[C@@H]3[C@@]1(C)C2 |  | 
8.16 | CC(=O)n1cnc2c1C(C)(C)C1=C[C@H](O)[C@H]3[C@@H]4CC[C@H]([C@H](C)CCC(=O)N5CCOCC5)[C@@]4(C)CC[C@@H]3[C@@]1(C)C2 | Toxic | 
0.83 | C[C@H](CCC(=O)N1CCOCC1)[C@H]1CC[C@H]2[C@@H]3CC=C4C(C)(C)c5nnsc5C[C@]4(C)[C@H]3CC[C@]12C |  | 
12.6 | CC(=O)n1ncc2c1C(C)(C)C1=CC[C@H]3[C@@H]4CC[C@H]([C@H](C)CCC(=O)Nc5ncc(C)s5)[C@@]4(C)CC[C@@H]3[C@@]1(C)C2 |  | 

EC50 [1] [µM] | SMILES | Activity [2] | Activity [3]
3.99 | C[C@H](CCC(=O)O)[C@H]1CC[C@H]2[C@@H]3CC=C4C(C)(C)c5[nH]ncc5C[C@]4(C)[C@H]3CC[C@]12C | Non-Toxic | 
8.25 | C[C@H](CCC(=O)N1CCOCC1)[C@H]1CC[C@H]2[C@@H]3CC=C4C(C)(C)c5nc(N)ncc5C[C@]4(C)[C@H]3CC[C@]12C |  | 
0.82 | CNC(=O)CC[C@@H](C)[C@H]1CC[C@H]2[C@@H]3CC=C4C(C)(C)c5c(cnn5C(C)=O)C[C@]4(C)[C@H]3CC[C@]12C |  | 
0.48 | CC(=O)n1ncc2c1C(C)(C)C1=CC[C@H]3[C@@H]4CC[C@H]([C@H](C)CCC(=O)NC5CCOCC5)[C@@]4(C)CC[C@@H]3[C@@]1(C)C2 |  | 
 | CCN(CC)CCO[C@H]1CC[C@@]2(C)C(=CC[C@@H]3[C@@H]2CC[C@]2(C)C(=O)CC[C@@H]32)C1.Cl |  | Toxic
2.73 | CC(=O)n1ncc2c1C(C)(C)C1=CC[C@H]3[C@@H]4CC[C@H]([C@H](C)CCC(=O)NCCN5CCOCC5)[C@@]4(C)CC[C@@H]3[C@@]1(C)C2 |  | 
1.09 | CC(=O)n1cnc2c1C(C)(C)C1=CC[C@H]3[C@@H]4CC[C@H]([C@H](C)CCCCC(=O)N5CCOCC5)[C@@]4(C)CC[C@@H]3[C@@]1(C)C2 |  | 
1.84 | CCOC(=O)c1noc2c1C[C@@]1(C)C(=CC[C@H]3[C@@H]4CC[C@H]([C@H](C)CCC(=O)N5CCOCC5)[C@@]4(C)CC[C@@H]31)C2(C)C |  | 
43.9 | CC(=O)n1ncc2c1C(C)(C)C1=CC[C@H]3[C@@H]4CC[C@H]([C@H](C)CCC(=O)Nc5nc6c(C)cccc6s5)[C@@]4(C)CC[C@@H]3[C@@]1(C)C2 |  | 
0.63 | CCC(O)(CC)CC[C@@H](C)[C@H]1CC[C@H]2[C@@H]3CC=C4C(C)(C)c5c(ncn5C(C)=O)C[C@]4(C)[C@H]3CC[C@]12C | Non-Toxic | 
0.53 | CCOC(=O)c1n[nH]c2c1C[C@@]1(C)C(=CC[C@H]3[C@@H]4CC[C@H]([C@H](C)CCC(=O)N5CCOCC5)[C@@]4(C)CC[C@@H]31)C2(C)C |  | 
31.4 | CC(=O)n1ncc2c1C(C)(C)C1=CC[C@H]3[C@@H]4CC[C@H]([C@H](C)CCC(=O)Nc5nc6ccccc6s5)[C@@]4(C)CC[C@@H]3[C@@]1(C)C2 |  | 
0.98 | CC(=O)n1cnc2c1C(C)(C)C1=CC[C@H]3[C@@H]4CC[C@H]([C@H](C)CCCC(=O)N5CCOCC5)[C@@]4(C)CC[C@@H]3[C@@]1(C)C2 |  | 
0.43 | CC(=O)N1CCC(NC(=O)CC[C@@H](C)[C@H]2CC[C@H]3[C@@H]4CC=C5C(C)(C)c6c(cnn6C(C)=O)C[C@]5(C)[C@H]4CC[C@]23C)CC1 |  | 
4.8 | CC(=O)n1ncc2c1C(C)(C)C1=CC[C@H]3[C@@H]4CC[C@H]([C@H](C)CCC(=O)Nc5ncc([N+](=O)[O-])s5)[C@@]4(C)CC[C@@H]3[C@@]1(C)C2 |  | 
0.41 | CC(=O)n1cnc2c1C(C)(C)C1=CC[C@H]3[C@@H]4CC[C@H]([C@H](C)C(=O)N5CCOCC5)[C@@]4(C)CC[C@@H]3[C@@]1(C)C2 |  | 
0.65 | CCC(=O)n1cnc2c1C(C)(C)C1=CC[C@H]3[C@@H]4CC[C@H]([C@H](C)CCC(=O)N5CCOCC5)[C@@]4(C)CC[C@@H]3[C@@]1(C)C2 | Non-Toxic | 
5.41 | CC(=O)n1ncc2c1C(C)(C)C1=CC[C@H]3[C@@H]4CC[C@H]([C@H](C)CCC(=O)Nc5ccc(C)cc5)[C@@]4(C)CC[C@@H]3[C@@]1(C)C2 |  | 

SMILES | EC50 [1] [µM] | Activity [2] | Activity [3]
CCC(O)(CC)CCC[C@@H](C)[C@H]1CC[C@H]2[C@@H]3[C@@H](O)C=C4C(C)(C)[C@@H](O)CC[C@]4(C)[C@H]3CC[C@]12C | 0.41 | Toxic | 
C=CCC(O)(CC=C)CCC[C@@H](C)[C@H]1CC[C@H]2[C@@H]3[C@@H](O)C=C4C(C)(C)[C@@H](O)CC[C@]4(C)[C@H]3CC[C@]12C.Cl | 0.43 | Toxic | 
CCC(O)(CC)CCCC[C@@H](C)[C@H]1CC[C@H]2[C@@H]3[C@@H](O)C=C4C(C)(C)[C@@H](O)CC[C@]4(C)[C@H]3CC[C@]12C | 0.41 | Toxic | 
C[C@H](CCCC(C)(C)O)[C@H]1CC[C@H]2[C@@H]3[C@@H](O)C=C4C(C)(C)[C@@H](O)CC[C@]4(C)[C@H]3CC[C@]12C | 0.41 | Toxic | 
C[C@H](CCCCC(C)(C)O)[C@H]1CC[C@H]2[C@@H]3[C@@H](O)C=C4C(C)(C)[C@@H](O)CC[C@]4(C)[C@H]3CC[C@]12C | 0.41 | Toxic | 
C=CCC(O)(CC=C)CCC[C@@H](C)[C@H]1CC[C@H]2[C@@H]3[C@@H](O)C=C4C(C)(C)[C@@H](O)CC[C@]4(C)[C@H]3CC[C@]12C | 0.41 | Toxic | 
